Measured values taken from PMC9101764, “Synthesis and In Vitro Characterization of Selective Cannabinoid CB2 Receptor Agonists: Biological Evaluation against Neuroblastoma Cancer Cells” (Molecules, 2022).
pEC50: −log10 of the molar value.

Tests used:
hCB2R = biological target: T1, hCB2R (Homo sapiens, UniProt P34972); experiment: PathHunter β-arrestin2 recruitment assay in CHO cells; format: cell-based
T1 construct: host or cells: HitHunter CHO-K1 cells
Protocol: Compounds FG158a, FG160a, FG161a, and LV62 were also evaluated for their ability to recruit β-arrestin2, since G protein-coupled receptors also interact with β-arrestin, which facilitates receptor internalization, recycling, degradation, and signaling.
CHO cells stably expressing hCB1R or hCB2R were maintained at 37 °C and 5% CO2 in Gibco Ham’s F-12 nutrient mix (Fisher Scientific, Loughborough, UK ) supplemented with 2 mM L-glutamine, 10% fetal bovine serum (FBS), 0.6% penicillin−streptomycin (Fisher Scientific, Loughborough UK), and the disulfate salt of geneticin (G418) as previously described (Sigma-Aldrich, Poole, UK). For subsequent radioligand displacement assays, membranes were prepared by scraping cells from flasks, centrifuging the cells, and storing the cell pellet at −20 °C. When required for us, cell pellets were defrosted and diluted in tris buffer (50 mM Tris-HCl and 50 mM Tris-base). As we have described in previous studies, HitHunter (cAMP) and PathHunter (βarrestin2) CHO-K1 cells stably expressing hCB1R or hCB2R from DiscoveRx® (Eurofins, Fremont, CA, USA) were maintained at 37 °C, 5% CO2 in F-12 DMEM containing 10% FBS and 1% Pen/Strep with 800 µg/mL geneticin (HitHunter) or 800 µg/mL G418 and 300 µg/mL hygromycin B (PathHunter).
The quantification of β-arrestin2 recruitment using the DiscoveRx PathHunter assay has been described by our group previously and is summarized here.. Twenty thousand cells/well were grown overnight in Opti-MEM containing 1% FBS at 37 °C and 5% CO2 in low-volume 96 well plates. The next day, cells were treated with compounds for 90 min at 37 °C. Detection solution was added to cells according to the manufacturer’s directions (DiscoveRx) and cells were stored for 60 min at room temperature. After this incubation, chemiluminescence was quantified on a Cytation5 plate reader (top read, gain 200, integration time 10,000 ms).
Estimates of Ki, EC50, and Emax were determined using non-linear regression three-parameters (GraphPad, Prism, v. 9.0).
Data are fitted to a non−linear regression (three parameter model, GraphPad v. 9.0). Data are mean ± S.E.M. of 6 independent experiments performed in triplicate.

ERK1/2 = ERK1/2 Western blot and densitometric analysis; format: cell-based, human; conditions: SH-SY5Y cells
Description: Among the CB2R agonists tested, we selected FG158a as it provides the best dose–response curve in SH-SY5Y cells (Figure 4B). The effect of CB2R agonists on the ERK pathway has been previously detected in other tumor models such as a breast cancer model. The dysregulation of the ERK/MAPK pathway is crucial in neuroblastoma. […] We addressed the effect of FG158a on MAPK kinase activation by the evaluation of its component ERK1/2 in the presence and in the absence of the antagonist SR144528 (Figure 6).
After the treatment with FG158a (20 μM) in the presence and absence of SR144528 (added 1 h before the CB2R agonist at the concentration of 1 µM), SHSY5Y cells were centrifuged and cell pellets were lysed in R.I.P.A. buffer (50 mM Tris-HCl, pH = 7.4; 150 mM NaCl; […], 1% NP-40; 0.5% sodium deoxycholate; 0.1% SDS; 1:100 phosphatase and protease inhibitors, both added before the lysis). Samples were centrifuged (17,900× g 20′ at 4 °C) and protein concentration was determined by Bio-Rad Protein Assay (Bio-Rad, Berkeley, CA, USA) as previously described. […]
Figure 6 FG158a inhibition of ERK1/2 is mediated by CB2R. […] The statistical analysis was performed by parametric two tailed t-test (* p < 0.05 FG158a calculated with respect to the CTR; ^& p < 0.01 FG158a+SR144528 calculated with respect to FG158a).

T1 sequence (P34972 whole entry): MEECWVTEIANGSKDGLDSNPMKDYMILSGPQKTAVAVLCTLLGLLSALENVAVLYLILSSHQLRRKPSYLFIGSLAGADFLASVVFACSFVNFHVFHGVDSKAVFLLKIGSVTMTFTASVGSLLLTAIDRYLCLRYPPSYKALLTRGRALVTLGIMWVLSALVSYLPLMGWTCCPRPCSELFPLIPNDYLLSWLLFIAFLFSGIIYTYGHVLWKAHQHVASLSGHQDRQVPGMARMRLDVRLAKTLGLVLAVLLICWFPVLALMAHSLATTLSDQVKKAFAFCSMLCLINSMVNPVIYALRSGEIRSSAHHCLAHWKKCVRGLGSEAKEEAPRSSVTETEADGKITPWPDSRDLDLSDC

Q: `CC1CCC(NC(=O)c2cc3cccnc3n(CCCCCBr)c2=O)CC1` (stereo not shown) [FG158a, 1-(5-bromopentyl)-N-(4-methylcyclohexyl)-2-oxo-1,2-dihydro-1,8-naphthyridine-3-carboxamide] was tested. Which pEC50 (hCB2R) did it give?
A: < 5.00

Q: What about the “β-Arrestin2 Recruitment Emax (% CP55,940) ± S.E.M” value (hCB2R; CHO cells expressing human CB2R, 90 min) of the same molecule?
A: 46 ± 1.8 % CP55,940

Q: What about the “effect on ERK1/2 expression in presence of SR144528” value (ERK1/2; 20 µM FG158a + SR144528 1 µM added 1 h before) of the same molecule?
A: reversed the inhibitory effect

Q: And the “effect on ERK1/2 expression” value (ERK1/2; 20 µM, vs untreated control cells)?
A: inhibited ERK1/2 expression
